From the supplement of paper PMC11451515

Columns and labels:
Conditions in all cases: 48 h
NOMO1 [1] = test: cell viability relative to DMSO control; higher = less cytotoxic
How it was run: (§1)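 Viability was expressed as a per-plate percentage of DMSO wells, with cell-free wells as background. Leukemia cells (NOMO1 or SEM at 500 cells/well, P12-Ichikawa at 1000 cells/well) were adapted for at least four passages in each medium and seeded in 1536-well plates (5 μl). Library compounds in DMSO were pin-dosed over an 11-point threefold series from 47 μM to 0.79 nM, and CellTiter-Glo One luminescence was read after 48 h at 37°C.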

P12-Ichikawa [2] = test: as above
How it was run: as §1

SEM cells [3] = test: as above
How it was run: as §1

NOMO1 [4] = test: AUC of viability dose-response curve (% viability x log10 dose units); higher = less sensitive
How it was run: (§2)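 Leukemia cells adapted to each medium (500 or 1000 cells/well, 1536-well plates) were exposed to library compounds in DMSO for 48 h at 37°C at 11 threefold doses, 47 μM to 0.79 nM. Luminescence by CellTiter-Glo One was normalised per plate to DMSO and cell-free wells, then fitted with a four-parameter log-logistic curve on log10 dose. Curves above full viability were scaled and quality-control failures removed before area under the curve was integrated by trapezoidal rule.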

P12-Ichikawa [5] = test: as above
How it was run: as §2

SEM cells [6] = test: as above
How it was run: as §2

[7] = HPLM + 10% dialyzed FBS, 0.000781 µM
[8] = HPLM + 10% dialyzed FBS, 0.00234 µM
[9] = HPLM + 10% dialyzed FBS, 0.00702 µM
[10] = HPLM + 10% dialyzed FBS, 0.0211 µM
[11] = HPLM + 10% dialyzed FBS, 0.0632 µM
[12] = HPLM + 10% dialyzed FBS, 0.19 µM
[13] = HPLM + 10% dialyzed FBS, 0.569 µM
[14] = HPLM + 10% dialyzed FBS, 1.71 µM
[15] = HPLM + 10% dialyzed FBS, 5.12 µM
[16] = HPLM + 10% dialyzed FBS, 15.4 µM
[17] = HPLM + 10% dialyzed FBS, 46.1 µM
[18] = RPMI 5 mM glucose + 10% FBS, 0.000781 µM
[19] = RPMI 5 mM glucose + 10% FBS, 0.00234 µM
[20] = RPMI 5 mM glucose + 10% FBS, 0.00702 µM
[21] = RPMI 5 mM glucose + 10% FBS, 0.0211 µM
[22] = RPMI 5 mM glucose + 10% FBS, 0.0632 µM
[23] = RPMI 5 mM glucose + 10% FBS, 0.19 µM
[24] = RPMI 5 mM glucose + 10% FBS, 0.569 µM
[25] = RPMI 5 mM glucose + 10% FBS, 1.71 µM
[26] = RPMI 5 mM glucose + 10% FBS, 5.12 µM
[27] = RPMI 5 mM glucose + 10% FBS, 15.4 µM
[28] = RPMI 5 mM glucose + 10% FBS, 46.1 µM
[29] = RPMI 5 mM glucose + 10% dialyzed FBS, 0.000781 µM
[30] = RPMI 5 mM glucose + 10% dialyzed FBS, 0.00234 µM
[31] = RPMI 5 mM glucose + 10% dialyzed FBS, 0.00702 µM
[32] = RPMI 5 mM glucose + 10% dialyzed FBS, 0.0211 µM
[33] = RPMI 5 mM glucose + 10% dialyzed FBS, 0.0632 µM
[34] = RPMI 5 mM glucose + 10% dialyzed FBS, 0.19 µM
[35] = RPMI 5 mM glucose + 10% dialyzed FBS, 0.569 µM
[36] = RPMI 5 mM glucose + 10% dialyzed FBS, 1.71 µM
[37] = RPMI 5 mM glucose + 10% dialyzed FBS, 5.12 µM
[38] = RPMI 5 mM glucose + 10% dialyzed FBS, 15.4 µM
[39] = RPMI 5 mM glucose + 10% dialyzed FBS, 46.1 µM
[40] = RPMI 5 mM glucose + 10% dialyzed FBS

## Cc1ccc(NC(=O)c2ccc(CN3CCN(C)CC3)cc2)cc1Nc1nc(-c2cccnc2)cs1
NOMO1 [1]; [7]
  cell viability: 103%
NOMO1 [1]; [8]
  cell viability: 98.1%
NOMO1 [1]; [9]
  cell viability: 99.3%
NOMO1 [1]; [10]
  cell viability: 105%
NOMO1 [1]; [11]
  cell viability: 96.6%
NOMO1 [1]; [12]
  cell viability: 89.3%
NOMO1 [1]; [13]
  cell viability: 82.6%
NOMO1 [1]; [14]
  cell viability: 75.3%
NOMO1 [1]; [15]
  cell viability: 76.8%
NOMO1 [1]; [16]
  cell viability: 73%
NOMO1 [1]; [17]
  cell viability: 75.2%
NOMO1 [1]; [18]
  cell viability: 95.9%
NOMO1 [1]; [19]
  cell viability: 104%
NOMO1 [1]; [20]
  cell viability: 93%
NOMO1 [1]; [21]
  cell viability: 94.9%
NOMO1 [1]; [22]
  cell viability: 99.4%
NOMO1 [1]; [23]
  cell viability: 102%
NOMO1 [1]; [24]
  cell viability: 89.3%
NOMO1 [1]; [25]
  cell viability: 108%
NOMO1 [1]; [26]
  cell viability: 107%
NOMO1 [1]; [27]
  cell viability: 106%
NOMO1 [1]; [28]
  cell viability: 74.6%
NOMO1 [1]; [29]
  cell viability: 97.2%
NOMO1 [1]; [30]
  cell viability: 102%
NOMO1 [1]; [31]
  cell viability: 98.6%
NOMO1 [1]; [32]
  cell viability: 104%
NOMO1 [1]; [33]
  cell viability: 93.4%
NOMO1 [1]; [34]
  cell viability: 111%
NOMO1 [1]; [35]
  cell viability: 87.1%
NOMO1 [1]; [36]
  cell viability: 86.1%
NOMO1 [1]; [37]
  cell viability: 85.9%
NOMO1 [1]; [38]
  cell viability: 78.8%
NOMO1 [1]; [39]
  cell viability: 74.3%
P12-Ichikawa [2]; [7]
  cell viability: 102%
P12-Ichikawa [2]; [8]
  cell viability: 104%
P12-Ichikawa [2]; [9]
  cell viability: 106%
P12-Ichikawa [2]; [10]
  cell viability: 103%
P12-Ichikawa [2]; [11]
  cell viability: 106%
P12-Ichikawa [2]; [12]
  cell viability: 102%
P12-Ichikawa [2]; [13]
  cell viability: 101%
P12-Ichikawa [2]; [14]
  cell viability: 92.7%
P12-Ichikawa [2]; [15]
  cell viability: 70.5%
P12-Ichikawa [2]; [16]
  cell viability: 57%
P12-Ichikawa [2]; [17]
  cell viability: 41.3%
P12-Ichikawa [2]; [18]
  cell viability: 105%
P12-Ichikawa [2]; [19]
  cell viability: 101%
P12-Ichikawa [2]; [20]
  cell viability: 110%
P12-Ichikawa [2]; [21]
  cell viability: 113%
P12-Ichikawa [2]; [22]
  cell viability: 100%
P12-Ichikawa [2]; [23]
  cell viability: 111%
P12-Ichikawa [2]; [24]
  cell viability: 89.1%
P12-Ichikawa [2]; [25]
  cell viability: 89.7%
P12-Ichikawa [2]; [26]
  cell viability: 63%
P12-Ichikawa [2]; [27]
  cell viability: 50.4%
P12-Ichikawa [2]; [28]
  cell viability: 49.7%
P12-Ichikawa [2]; [29]
  cell viability: 108%
P12-Ichikawa [2]; [30]
  cell viability: 112%
P12-Ichikawa [2]; [31]
  cell viability: 109%
P12-Ichikawa [2]; [32]
  cell viability: 109%
P12-Ichikawa [2]; [33]
  cell viability: 110%
P12-Ichikawa [2]; [34]
  cell viability: 108%
P12-Ichikawa [2]; [35]
  cell viability: 95.5%
P12-Ichikawa [2]; [36]
  cell viability: 95.1%
P12-Ichikawa [2]; [37]
  cell viability: 62.1%
P12-Ichikawa [2]; [38]
  cell viability: 46.1%
P12-Ichikawa [2]; [39]
  cell viability: 45.4%
SEM cells [3]; [7]
  cell viability: 56.2%
SEM cells [3]; [8]
  cell viability: 90.4%
SEM cells [3]; [9]
  cell viability: 87.9%
SEM cells [3]; [10]
  cell viability: 65.4%
SEM cells [3]; [11]
  cell viability: 53.1%
SEM cells [3]; [12]
  cell viability: 47.6%
SEM cells [3]; [13]
  cell viability: 42.4%
SEM cells [3]; [14]
  cell viability: 32.7%
SEM cells [3]; [15]
  cell viability: 28.2%
SEM cells [3]; [16]
  cell viability: 20.2%
SEM cells [3]; [17]
  cell viability: 24.6%
SEM cells [3]; [18]
  cell viability: 64.8%
SEM cells [3]; [19]
  cell viability: 99%
SEM cells [3]; [20]
  cell viability: 93.2%
SEM cells [3]; [21]
  cell viability: 71.2%
SEM cells [3]; [22]
  cell viability: 70.9%
SEM cells [3]; [23]
  cell viability: 51.7%
SEM cells [3]; [24]
  cell viability: 43.7%
SEM cells [3]; [25]
  cell viability: 34.8%
SEM cells [3]; [26]
  cell viability: 23.6%
SEM cells [3]; [27]
  cell viability: 15.7%
SEM cells [3]; [28]
  cell viability: 17.1%
SEM cells [3]; [29]
  cell viability: 54.5%
SEM cells [3]; [30]
  cell viability: 88.4%
SEM cells [3]; [31]
  cell viability: 74.7%
SEM cells [3]; [32]
  cell viability: 65.1%
SEM cells [3]; [33]
  cell viability: 63.6%
SEM cells [3]; [34]
  cell viability: 46.7%
SEM cells [3]; [35]
  cell viability: 37.5%
SEM cells [3]; [36]
  cell viability: 29.7%
SEM cells [3]; [37]
  cell viability: 22.1%
SEM cells [3]; [38]
  cell viability: 10.9%
SEM cells [3]; [39]
  cell viability: 18%
NOMO1 [4]; HPLM + 10% dialyzed FBS
  AUC of viability dose-response curve: 417
NOMO1 [4]; RPMI 5 mM glucose + 10% FBS
  AUC of viability dose-response curve: 468
NOMO1 [4]; [40]
  AUC of viability dose-response curve: 440
P12-Ichikawa [5]; HPLM + 10% dialyzed FBS
  AUC of viability dose-response curve: 417
P12-Ichikawa [5]; RPMI 5 mM glucose + 10% FBS
  AUC of viability dose-response curve: 405
P12-Ichikawa [5]; [40]
  AUC of viability dose-response curve: 406
SEM cells [6]; HPLM + 10% dialyzed FBS
  AUC of viability dose-response curve: 238
SEM cells [6]; RPMI 5 mM glucose + 10% FBS
  AUC of viability dose-response curve: 255
SEM cells [6]; [40]
  AUC of viability dose-response curve: 223
